Legend:
[1] = test system: MV-4-11 cells; assay: MV-4-11 cell viability assay (CellTiter-Glo); type: cell-based; details: 3 days
Experimental: MV-4-11 cells were cultured in RPMI 1640 media supplemented with 10% fetal bovine serum, streptomycin and penicillin, and were plated in white walled 96-well plates at 2500 cells/well. Cells were incubated in DMSO (control) or the indicated compounds for 3 days at 37° C. and 5% CO2. Following the incubation period, 100 μL of CellTiterGlow (CTG) reagent (CellTiter-Glo® Luminescent Cell Viability Assay, Promega (Madison, Wis.)) was added to each well. Following a 10 minutes incubation with shaking, luminescence was measured using the EnVision Multimode plate reader.

[2] = target: T1, PDE6D (Homo sapiens, UniProt O43924+Q96SW2); assay: PDE6 degradation assay (Western blot, MV-4-11 cells); type: cell-based; details: 6-8 hours
T1 construct: Whole cell extracts were prepared using RIPA buffer; endogenous in cells; host or cells: MV-4-11
T1 sequence (O43924 whole entry): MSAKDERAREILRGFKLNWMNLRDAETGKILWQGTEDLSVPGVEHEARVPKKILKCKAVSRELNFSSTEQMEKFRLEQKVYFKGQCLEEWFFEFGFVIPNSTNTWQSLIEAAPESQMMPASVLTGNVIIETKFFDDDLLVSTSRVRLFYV
T1 sequence (Q96SW2 whole entry): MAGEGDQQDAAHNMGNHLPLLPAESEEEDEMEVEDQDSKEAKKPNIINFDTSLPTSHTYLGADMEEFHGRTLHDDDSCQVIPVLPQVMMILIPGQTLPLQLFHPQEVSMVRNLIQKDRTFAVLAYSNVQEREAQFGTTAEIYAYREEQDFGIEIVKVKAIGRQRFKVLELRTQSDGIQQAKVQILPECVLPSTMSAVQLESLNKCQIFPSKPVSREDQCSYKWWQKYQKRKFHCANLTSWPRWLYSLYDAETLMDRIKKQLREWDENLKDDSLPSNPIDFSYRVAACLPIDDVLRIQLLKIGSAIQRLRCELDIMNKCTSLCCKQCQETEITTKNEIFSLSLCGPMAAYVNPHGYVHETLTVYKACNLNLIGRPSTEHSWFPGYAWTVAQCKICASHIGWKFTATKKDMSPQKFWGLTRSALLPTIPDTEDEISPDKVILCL
T1 sequence (Q16531 whole entry partner): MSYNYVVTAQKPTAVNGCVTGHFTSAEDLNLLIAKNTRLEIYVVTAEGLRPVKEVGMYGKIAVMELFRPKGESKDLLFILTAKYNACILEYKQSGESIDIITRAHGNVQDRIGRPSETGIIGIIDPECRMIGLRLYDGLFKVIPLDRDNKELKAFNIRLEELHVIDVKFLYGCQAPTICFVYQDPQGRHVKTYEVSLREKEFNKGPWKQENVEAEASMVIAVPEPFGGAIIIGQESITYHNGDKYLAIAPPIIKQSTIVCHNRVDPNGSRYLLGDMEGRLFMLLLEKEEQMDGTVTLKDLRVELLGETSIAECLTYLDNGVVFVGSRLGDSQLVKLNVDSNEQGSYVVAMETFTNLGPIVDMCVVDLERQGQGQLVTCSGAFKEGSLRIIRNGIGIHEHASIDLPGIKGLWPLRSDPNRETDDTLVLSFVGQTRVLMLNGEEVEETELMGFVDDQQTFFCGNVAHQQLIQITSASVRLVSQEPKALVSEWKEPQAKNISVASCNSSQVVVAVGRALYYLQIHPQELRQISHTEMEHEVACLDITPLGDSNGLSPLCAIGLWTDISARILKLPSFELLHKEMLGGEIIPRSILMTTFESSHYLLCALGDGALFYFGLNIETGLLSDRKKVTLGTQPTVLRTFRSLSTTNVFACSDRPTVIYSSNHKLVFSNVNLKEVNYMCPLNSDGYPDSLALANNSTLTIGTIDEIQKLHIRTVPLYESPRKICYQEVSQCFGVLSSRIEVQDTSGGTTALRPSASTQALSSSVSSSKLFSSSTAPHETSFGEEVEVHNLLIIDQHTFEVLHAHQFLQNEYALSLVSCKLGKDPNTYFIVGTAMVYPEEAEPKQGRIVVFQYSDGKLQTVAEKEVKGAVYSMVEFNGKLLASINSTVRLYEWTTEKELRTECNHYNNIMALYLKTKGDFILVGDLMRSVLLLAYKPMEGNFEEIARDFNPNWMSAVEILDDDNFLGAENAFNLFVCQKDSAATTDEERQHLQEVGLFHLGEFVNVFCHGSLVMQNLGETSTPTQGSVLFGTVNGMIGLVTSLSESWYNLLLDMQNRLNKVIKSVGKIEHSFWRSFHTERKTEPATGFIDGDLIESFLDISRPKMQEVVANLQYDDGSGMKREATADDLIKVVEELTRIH
Experimental: (§1) MV-4-11 cells were grown in RPMI 1640 media supplemented with 10% fetal bovine serum, streptomycin and penicillin.
(§2) Cells were cultured at approximately 10^6 cells per mL and incubated in DMSO or the indicated compounds for 6-8 hours. Whole cell extracts were prepared using RIPA buffer according to manufacturer's protocol (Pierce). Briefly, 3×10^6 cells were washed once in PBS, the cell pellets were resuspended in RIPA buffer and allowed to incubate for 15 minutes on ice. Cells debris was removed by centrifugation and the cleared whole cell lysates were transferred to new tubes for further analysis.
(§3) For Western blot analysis, whole cell protein extracts were separated on 4-12% SDS-polyacrylamide gels, transferred to nitrocellulose and probed with the indicated primary antibodies. Membranes were subsequently washed and probed with the appropriate IRDye secondary antibodies (LI-COR). The signal was detected using the Odyssey Imaging System (LI-COR).
(§4) The following antibodies were used in these studies: Anti-eRF3/GSPT1: Abcam, ab126090 (Cambridge, Mass.); Anti-Ikaros: Abcam, ab191394 (Cambridge, Mass.); Anti-CK1α: Abcam, ab108296 (Cambridge, Mass.); Anti-PDE6D: Santa Cruz Biotechnology, sc-166854 (Dallas, Tex.); β-actin (8H10D10) mouse monoclonal antibody: Cell Signaling Technology, #3700 (Danvers, Mass.); IRDye 680RD Goat anti-rabbit antibody: LI-COR, 926-68071 (Lincoln, Nebr.); IRDye 800CW Goat anti-mouse antibody: LI-COR, 926-32210 (Lincoln, Nebr.).

[3] = target: T2, CK1α (Homo sapiens, UniProt P48729+Q96SW2); assay: CK1α degradation assay (Western blot, MV-4-11 cells); type: cell-based; details: 6-8 hours
T2 construct: Whole cell extracts were prepared using RIPA buffer; endogenous in cells; host or cells: MV-4-11
T2 sequence (P48729 whole entry): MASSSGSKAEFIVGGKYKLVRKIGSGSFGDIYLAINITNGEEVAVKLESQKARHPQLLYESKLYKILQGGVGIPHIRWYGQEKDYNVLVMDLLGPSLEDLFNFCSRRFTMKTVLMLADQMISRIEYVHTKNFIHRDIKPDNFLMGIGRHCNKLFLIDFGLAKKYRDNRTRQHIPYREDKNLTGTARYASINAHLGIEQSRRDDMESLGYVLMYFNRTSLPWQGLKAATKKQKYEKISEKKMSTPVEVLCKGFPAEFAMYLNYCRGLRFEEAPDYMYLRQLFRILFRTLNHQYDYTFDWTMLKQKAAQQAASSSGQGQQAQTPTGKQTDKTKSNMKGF
T2 sequence (Q96SW2 whole entry): as the sequence (Q96SW2 whole entry) above
T2 sequence (Q16531 whole entry partner): as the sequence (Q16531 whole entry partner) above
Experimental: as §1, §2, §3, §4

[4] = test system: GSPT1; assay: GSPT1 degradation assay (Western blot, MV-4-11 cells); type: cell-based; details: 6-8 hours
Experimental: as §1, §2, §3, §4

[5] = target: T3, Helios (Homo sapiens, UniProt Q96SW2+Q9UKS7); assay: Helios assay (Western blot degradation, MV-4-11 cells); type: cell-based; details: 6-8 hours
T3 construct: Whole cell extracts were prepared using RIPA buffer; endogenous in cells; host or cells: MV-4-11
T3 sequence (Q9UKS7 whole entry): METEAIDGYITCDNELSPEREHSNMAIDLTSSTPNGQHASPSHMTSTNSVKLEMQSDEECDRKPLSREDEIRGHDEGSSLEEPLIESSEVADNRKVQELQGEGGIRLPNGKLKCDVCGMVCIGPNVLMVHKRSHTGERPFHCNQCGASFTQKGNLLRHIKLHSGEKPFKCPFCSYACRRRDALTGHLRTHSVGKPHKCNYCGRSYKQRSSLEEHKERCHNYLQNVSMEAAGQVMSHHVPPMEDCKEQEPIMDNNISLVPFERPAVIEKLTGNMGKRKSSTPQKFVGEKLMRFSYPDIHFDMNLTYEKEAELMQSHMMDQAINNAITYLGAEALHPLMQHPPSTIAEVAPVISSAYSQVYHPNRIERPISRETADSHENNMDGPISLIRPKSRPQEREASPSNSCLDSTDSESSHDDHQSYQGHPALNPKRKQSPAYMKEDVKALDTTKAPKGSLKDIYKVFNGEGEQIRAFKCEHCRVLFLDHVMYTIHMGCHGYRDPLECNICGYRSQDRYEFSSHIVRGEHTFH
T3 sequence (Q96SW2 whole entry): as the sequence (Q96SW2 whole entry) above
T3 sequence (Q16531 whole entry partner): as the sequence (Q16531 whole entry partner) above
Experimental: as §1, §2, §3, §4

[6] = target: T4, IKAROS (Homo sapiens, UniProt Q13422+Q96SW2); assay: IKAROS degradation assay (Western blot, MV-4-11 cells); type: cell-based; details: 6-8 hours
T4 construct: endogenous in cells; host or cells: MV-4-11
T4 sequence (Q13422 whole entry): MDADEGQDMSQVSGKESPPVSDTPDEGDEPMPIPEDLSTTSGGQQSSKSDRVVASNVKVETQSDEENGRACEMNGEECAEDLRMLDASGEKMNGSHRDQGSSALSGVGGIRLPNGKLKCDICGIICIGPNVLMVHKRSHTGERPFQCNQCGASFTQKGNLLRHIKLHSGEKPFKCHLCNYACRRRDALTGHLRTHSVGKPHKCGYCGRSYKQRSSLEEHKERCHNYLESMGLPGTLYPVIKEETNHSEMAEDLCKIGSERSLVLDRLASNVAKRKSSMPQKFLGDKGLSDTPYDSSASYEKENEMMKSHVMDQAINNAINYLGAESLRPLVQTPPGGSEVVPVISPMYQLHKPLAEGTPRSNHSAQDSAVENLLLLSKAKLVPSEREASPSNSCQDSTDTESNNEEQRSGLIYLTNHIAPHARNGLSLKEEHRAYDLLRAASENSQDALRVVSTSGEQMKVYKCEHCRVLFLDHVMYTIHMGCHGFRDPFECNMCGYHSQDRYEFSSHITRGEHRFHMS
T4 sequence (Q96SW2 whole entry): as the sequence (Q96SW2 whole entry) above
T4 sequence (Q16531 whole entry partner): as the sequence (Q16531 whole entry partner) above
Experimental: as §1, §2, §3, §4

[7] = test system: TNFα; assay: TNFα in LPS-induced PBMCs / CD14+ monocytes (Meso Scale); type: cell-based; details: LPS 100 ng/mL, 18-24 h
Experimental: (§5) Either frozen primary blood mononuclear cells (PBMCs) or frozen CD14+ mobilized peripheral blood monocytes were purchased from AllCells (PB003F, Normal Peripheral Blood MNC (Alameda, Calif.)). Cells were quick thawed, washed 1-time with RPMI-1640 (10% FBS/1% Pen-Strep) and plated in 96 well plates at 200,000 cells per well. Cells were pretreated with DMSO only or Compound 12 for 1 h and then induced with 100 ng/mL lipopolysaccharide (LPS) for 18-24 h. The supernatant was analyzed for IL-1β, IL-6, and TNFα, using Meso Scale assay according to manufacturer's protocol. The negative control wells were treated with DMSO.

[8] = test system: IL-1β; assay: IL-1β in LPS-induced PBMCs / CD14+ monocytes (Meso Scale); type: cell-based; details: LPS 100 ng/mL, 18-24 h
Experimental: as §5

[9] = test system: IL-6; assay: IL-6 in LPS-induced PBMCs / CD14+ monocytes (Meso Scale); type: cell-based; details: LPS 100 ng/mL, 18-24 h
Experimental: as §5

[10] = test system: IL-2; assay: IL-2 in anti-CD3 stimulated PBMCs (Mesoscale); type: cell-based, human; details: fold difference from DMSO control, 24 h
Experimental: For the IL-2 analysis, 96 well plates were precoated with 1 μg/mL anti-human CD3 antibody (OKT3, eBioscience Inc., San Diego, Calif.). After washing with PBS, Compound 12 was added (50 μL/well) followed by PBMCs diluted at 3-4 million cells/mL (150 μL/well). Plates were incubated for 24 h and the supernatants collected for Mesoscale IL-2 analysis. IL-2 activity is measured as fold difference from the DMSO control.

| SMILES | MV-4-11 Cell Viability % DMSO at 15 μM [1] [% DMSO] | MV-4-11 Cell Viability % DMSO at 30 μM [1] [% DMSO] | PDE6D % Degradation at 15 μM [2] [%] | PDE6D % Degradation at 30 μM [2] [%] | CK1α % Degradation at 15 μM [3] [%] | CK1α % Degradation at 30 μM [3] [%] | IKAROS % Degradation at 15 μM [6] [%] | IKAROS % Degradation at 30 μM [6] [%] | further results |
| --- | --- | --- | --- | --- | --- | --- | --- | --- | --- |
| Cc1nc2sccc2c(=O)n1C1CCC(=O)NC1=O (stereo not drawn) [Compound 3, 3-(2-methyl-4-oxothieno[2,3-d]pyrimidin-3(4H)-yl)piperidine-2,6-dione] | 97 | 94 | 0 | 10 |  |  |  |  |  |
| Cc1nc2cc(Br)sc2c(=O)n1C1CCC(=O)NC1=O (stereo not drawn) [Compound 4, 3-(6-bromo-2-methyl-4-oxothieno[3,2-d]pyrimidin-3(4H)-yl)piperidine-2,6-dione] | 100 | 97 | 49 | 75 |  |  |  |  |  |
| Cc1ccc(NC(=O)NCc2cc3nc(C)n(C4CCC(=O)NC4=O)c(=O)c3s2)cc1Cl (stereo not drawn) [Compound 13, 1-(3-chloro-4-methylphenyl)-3-((3-(2,6-dioxopiperidin-3-yl)-2-methyl-4-oxo-3,4-dihydrothieno[3,2-d]pyrimidin-6-yl)methyl)urea] | 2 | 0.73 | 4 | 9 | 31 | 35 | 65 | 55 | GSPT1 % Degradation at 15 μM [4]: 87%; GSPT1 % Degradation at 30 μM [4]: 87%; Helios % Degradation at 15 μM [5]: 50%; Helios % Degradation at 30 μM [5]: 21% |
| Cc1ccc(NC(=O)NCc2scc3c(=O)n(C4CCC(=O)NC4=O)c(C)nc23)cc1Cl (stereo not drawn) [Compound 12, 1-(3-chloro-4-methylphenyl)-3-((3-(2,6-dioxopiperidin-3-yl)-2-methyl-4-oxo-3,4-dihydrothieno[3,4-d]pyrimidin-7-yl)methyl)urea] | 0 | 0 | 0 | 21 | 16 | 45 | 28 | 60 | inhibition at 1 µM ([7]; 1 μM): 79%; inhibition at 10 µM ([7]; 10 μM): 91%; GSPT1 % Degradation at 15 μM [4]: 96%; GSPT1 % Degradation at 30 μM [4]: 97%; Helios % Degradation at 15 μM [5]: 49%; Helios % Degradation at 30 μM [5]: 69%; inhibition at 1 µM ([8]; 1 μM): 80%; inhibition at 10 µM ([8]; 10 μM): 92%; inhibition at 1 µM ([9]; 1 μM): 17%; inhibition at 10 µM ([9]; 10 μM): 53%; IL-2 Fold Change ([10]; 1 μM): 3.6 Fold Change; IL-2 Fold Change ([10]; 10 μM): 3.1 Fold Change |
| Cc1nc2ccsc2c(=O)n1C1CCC(=O)NC1=O (stereo not drawn) [Compound 1, 3-(2-methyl-4-oxothieno[3,2-d]pyrimidin-3(4H)-yl)piperidine-2,6-dione] |  |  |  |  |  |  |  |  | GSPT1 % Degradation at 15 μM [4]: 23%; GSPT1 % Degradation at 30 μM [4]: 0% |
| Cc1cc2c(=O)n(C3CCC(=O)NC3=O)c(C)nc2s1 (stereo not drawn) [Compound 6, 3-(2,6-dimethyl-4-oxothieno[2,3-d]pyrimidin-3(4H)-yl)piperidine-2,6-dione] | 89 | 91 |  |  |  |  |  |  |  |
| Cc1nc2cscc2c(=O)n1C1CCC(=O)NC1=O (stereo not drawn) [Compound 2, 3-(2-methyl-4-oxothieno[3,4-d]pyrimidin-3(4H)-yl)piperidine-2,6-dione] |  |  | 0 | 24 |  |  | 0 | 7 |  |
| Cc1nc2c(N)csc2c(=O)n1C1CCC(=O)NC1=O (stereo not drawn) [Compound 9, 3-(7-amino-2-methyl-4-oxothieno[3,2-d]pyrimidin-3(4H)-yl)piperidine-2,6-dione] |  |  |  |  | 24 | 12 |  |  |  |
| Cc1nc2scc(N)c2c(=O)n1C1CCC(=O)NC1=O (stereo not drawn) [Compound 10, 3-(5-amino-2-methyl-4-oxothieno[2,3-d]pyrimidin-3(4H)-yl)piperidine-2,6-dione] |  |  |  |  |  |  | 49 | 53 | Helios % Degradation at 15 μM [5]: 0%; Helios % Degradation at 30 μM [5]: 16% |
| Cc1nc2sc(Br)cc2c(=O)n1C1CCC(=O)NC1=O (stereo not drawn) [Compound 8, 3-(6-bromo-2-methyl-4-oxothieno[2,3-d]pyrimidin-3(4H)-yl)piperidine-2,6-dione] |  |  |  |  | 8 | 0 |  |  |  |
| Cc1nc2c(CN)scc2c(=O)n1C1CCC(=O)NC1=O.O=C(O)C(F)(F)F (stereo not drawn) [Compound 11, 3-(7-(aminomethyl)-2-methyl-4-oxothieno[3,4-d]pyrimidin-3(4H)-yl)piperidine-2,6-dione 2,2,2-trifluoroacetate] | 94 | 78 | 30 | 41 | 17 | 0 |  |  |  |
| Cc1nc2scc(Br)c2c(=O)n1C1CCC(=O)NC1=O (stereo not drawn) [Compound 5, 3-(5-bromo-2-methyl-4-oxothieno[2,3-d]pyrimidin-3(4H)-yl)piperidine-2,6-dione] |  |  | 0 | 15 |  |  |  |  |  |
| Cc1sc2nc(C)n(C3CCC(=O)NC3=O)c(=O)c2c1N (stereo not drawn) [Compound 7, 3-(5-amino-2,6-dimethyl-4-oxothieno[2,3-d]pyrimidin-3(4H)-yl)piperidine-2,6-dione] | 97 | 96 |  |  |  |  |  |  |  |

Source: patent US10584133B2, “Thienopyrimidinone compounds” (BioTheryX, Inc., priority 2018, dated 2020)
